Measured values as given in US20260327214A1, “1,3,4-OXADIAZOLE DERIVATIVE COMPOUNDS AS HISTONE DEACETYLASE 6 INHIBITOR, AND USES THEREOF” (CHONG KUN DANG PHARMACEUTICAL CORP., priority 2022, published 2026).

Columns and labels:
[1] = biological target: T1, human recombinant HDAC6 (Homo sapiens, UniProt Q9UBN7); assay: HDAC6 enzyme activity inhibition test (HDAC Fluorometric Drug Discovery Kit); type: biochemical; details: for HDAC6 selectivity (fold): HDAC6 over HDAC1; for IC50: human recombinant HDAC6, same protocol as HDAC1
T1 construct: purchased Calbiochem 382180
T1 sequence (Q9UBN7 1-1215): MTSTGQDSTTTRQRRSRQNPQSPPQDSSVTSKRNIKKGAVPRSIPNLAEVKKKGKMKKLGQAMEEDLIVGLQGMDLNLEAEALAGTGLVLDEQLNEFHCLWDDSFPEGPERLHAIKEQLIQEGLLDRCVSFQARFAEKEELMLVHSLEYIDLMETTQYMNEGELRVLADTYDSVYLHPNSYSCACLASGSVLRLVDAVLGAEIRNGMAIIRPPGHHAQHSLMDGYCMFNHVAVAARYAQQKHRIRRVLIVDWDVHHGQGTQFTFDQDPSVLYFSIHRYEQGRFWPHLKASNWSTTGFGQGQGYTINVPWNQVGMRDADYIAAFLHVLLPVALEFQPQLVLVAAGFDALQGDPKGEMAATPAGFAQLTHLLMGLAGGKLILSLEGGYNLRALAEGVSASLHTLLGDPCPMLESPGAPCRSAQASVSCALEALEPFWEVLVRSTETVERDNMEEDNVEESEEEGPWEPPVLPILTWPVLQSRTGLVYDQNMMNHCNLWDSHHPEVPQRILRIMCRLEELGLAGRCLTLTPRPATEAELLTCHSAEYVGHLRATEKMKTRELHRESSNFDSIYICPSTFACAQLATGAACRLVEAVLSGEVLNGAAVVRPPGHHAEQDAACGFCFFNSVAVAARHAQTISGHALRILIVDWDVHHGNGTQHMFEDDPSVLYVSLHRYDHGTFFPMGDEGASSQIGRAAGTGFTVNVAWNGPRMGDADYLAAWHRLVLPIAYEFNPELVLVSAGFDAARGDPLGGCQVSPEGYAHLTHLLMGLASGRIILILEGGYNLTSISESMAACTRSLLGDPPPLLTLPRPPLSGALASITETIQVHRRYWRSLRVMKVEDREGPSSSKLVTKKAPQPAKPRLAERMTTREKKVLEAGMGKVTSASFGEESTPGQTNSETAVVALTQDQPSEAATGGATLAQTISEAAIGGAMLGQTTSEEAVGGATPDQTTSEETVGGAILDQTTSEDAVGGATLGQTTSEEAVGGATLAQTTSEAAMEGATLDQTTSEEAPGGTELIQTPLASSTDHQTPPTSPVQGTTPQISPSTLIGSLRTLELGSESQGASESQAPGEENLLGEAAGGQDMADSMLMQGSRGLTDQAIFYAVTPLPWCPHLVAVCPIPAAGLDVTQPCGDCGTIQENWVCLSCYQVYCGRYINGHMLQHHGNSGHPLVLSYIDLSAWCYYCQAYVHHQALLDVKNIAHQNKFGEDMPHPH
Procedure, shortened: (§1)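 Recombinant human HDAC1 or HDAC6 (0.3 μg) reacted with 10 μM Fluor de Lys SIRT1 substrate and 5-fold diluted compound for 60 min at 30 °C. Developer II added 30 min; fluorescence read at Ex 360/Em 460 and IC50 calculated.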

[2] = biological target: T2, human recombinant HDAC1 (Homo sapiens, UniProt Q13547); assay: HDAC1 enzyme activity inhibition test (HDAC Fluorometric Drug Discovery Kit); type: biochemical; details: 30° C., 60 minutes, 10 μM substrate
T2 construct: purchased Enzo Life Science BML-SE456
T2 sequence (Q13547 whole entry): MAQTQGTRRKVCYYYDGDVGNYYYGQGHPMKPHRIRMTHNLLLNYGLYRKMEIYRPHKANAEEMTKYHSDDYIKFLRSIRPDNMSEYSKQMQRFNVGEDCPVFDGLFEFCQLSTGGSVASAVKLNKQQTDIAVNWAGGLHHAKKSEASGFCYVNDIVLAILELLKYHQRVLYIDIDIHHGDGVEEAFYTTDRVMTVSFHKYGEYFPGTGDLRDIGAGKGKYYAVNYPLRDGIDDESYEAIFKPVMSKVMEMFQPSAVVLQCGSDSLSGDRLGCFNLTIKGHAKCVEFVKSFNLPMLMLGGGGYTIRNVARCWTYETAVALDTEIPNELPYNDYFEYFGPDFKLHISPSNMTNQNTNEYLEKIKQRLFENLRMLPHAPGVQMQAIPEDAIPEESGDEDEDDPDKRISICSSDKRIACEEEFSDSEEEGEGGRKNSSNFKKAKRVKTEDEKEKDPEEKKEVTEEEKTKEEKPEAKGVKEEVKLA
Procedure, shortened: as §1

Row | SMILES | HDAC6 selectivity (fold) [1] [fold] | IC50 [1] [nM] | IC50 [2] [nM]
1 | CC(C)N1CCN(c2cccc(-c3nn(Cc4ccc(-c5nnc(C(F)F)o5)cn4)c(=S)o3)c2)CC1 [Compound 76, 3-[[5-[5-(difluoromethyl)-1,3,4-oxadiazol-2-yl]-2-pyridyl]methyl]-5-[3-(4-isopropylpiperazin-1-yl)phenyl]-1,3,4-oxadiazol-2-thione] | 945 | 52.9 | > 50000
2 | CN1CCC(c2cccc(-c3nn(Cc4ccc(-c5nnc(C(F)F)o5)cn4)c(=O)s3)c2F)CC1 [Compound 41, 3-[[5-[5-(difluoromethyl)-1,3,4-oxadiazol-2-yl]-2-pyridyl]methyl]-5-[2-fluoro-3-(1-methyl-4-piperidyl)phenyl]-1,3,4-thiadiazol-2-one] | 909 | 55 | > 50000
3 | CC(C)N1CCc2ccc(-c3nn(Cc4ccc(-c5nnc(C(F)F)o5)cn4)c(=O)o3)cc2C1 [Compound 13, 3-[[5-[5-(difluoromethyl)-1,3,4-oxadiazol-2-yl]-2-pyridyl]methyl]-5-(2-isopropyl-3,4-dihydro-1H-isoquinolin-7-yl)-1,3,4-oxadiazol-2-one] | 475 | 105 | > 50000
4 | CN(C)Cc1ccc(-c2nn(Cc3ccc(-c4nnc(C(F)F)o4)cn3)c(=S)o2)cc1 [Compound 91, 3-[[5-[5-(difluoromethyl)-1,3,4-oxadiazol-2-yl]-2-pyridyl]methyl]-5-[4-[(dimethylamino)methyl]phenyl]-1,3,4-oxadiazol-2-thione] | 1832 | 27.3 | > 50000
5 | Fc1cc(-c2nnc(C(F)F)o2)cnc1Cn1nc(-c2ccc(CN3CCC3)s2)oc1=S [Compound 130, 5-[5-(azetidine-1-ylmethyl)-2-thienyl]-3-[[5-[5-(difluoromethyl)-1,3,4-oxadiazol-2-yl]-3-fluoro-2-pyridyl]methyl]-1,3,4-oxadiazol-2-thione] | 750 | 66.7 | > 50000
6 | Fc1cc(-c2nnc(C(F)F)o2)cnc1Cn1nc(-c2cccc(CN3CCCCC3)c2)oc1=S [Compound 119, 3-[[5-[5-(difluoromethyl)-1,3,4-oxadiazol-2-yl]-3-fluoro-2-pyridyl]methyl]-5-[3-(1-piperidylmethyl)phenyl]-1,3,4-oxadiazol-2-thione] | 590 | 84.8 | > 50000
7 | CCN(CC)Cc1ccc(-c2nn(Cc3ccc(-c4nnc(C(F)F)o4)cn3)c(=S)o2)s1 [Compound 122, 5-[5-(diethylaminomethyl)-2-thienyl]-3-[[5-[5-(difluoromethyl)-1,3,4-oxadiazol-2-yl]-2-pyridyl]methyl]-1,3,4-oxadiazol-2-thione] | 453 | 110 | > 50000
8 | CN1CCC(c2ccc(-c3nn(Cc4ccc(-c5nnc(C(F)F)o5)cn4)c(=O)o3)cc2)CC1 [Compound 29, 3-[[5-[5-(difluoromethyl)-1,3,4-oxadiazol-2-yl]-2-pyridyl]methyl]-5-[4-(1-methyl-4-piperidyl)phenyl]-1,3,4-oxadiazol-2-one] | 745 | 67.1 | > 50000
9 | CC(C)N1CCN(c2nccc(-c3nn(Cc4ccc(-c5nnc(C(F)F)o5)cn4)c(=S)o3)n2)CC1 [Compound 127, 3-[[5-[5-(difluoromethyl)-1,3,4-oxadiazol-2-yl]-2-pyridyl]methyl]-5-[2-(4-isopropylpiperazin-1-yl)pyrimidin-4-yl]-1,3,4-oxadiazol-2-thione] | 879 | 56.9 | > 50000
10 | FC(F)c1nnc(-c2ccc(Cn3nc(-c4ccc(CN5CCN(C6CCC6)CC5)cc4)oc3=S)nc2)o1 [Compound 78, 5-[4-[(4-cyclobutylpiperazin-1-yl)methyl]phenyl]-3-[[5-[5-(difluoromethyl)-1,3,4-oxadiazol-2-yl]-2-pyridyl]methyl]-1,3,4-oxadiazol-2-thione] | 498 | 100 | > 50000
